From PMC13108699, “Mass balance and metabolite profiling of ^14C-Zalunfiban in humans following single-dose subcutaneous administration” (Xenobiotica; the fate of foreign compounds in biological …, 2025)

What was measured:
[1] = Cumulative excretion of ^14C in urine and faeces (mass balance); format: in vivo, human
From the text: This was a Phase 1, single-centre, open-label, non-controlled, mass balance and metabolite profiling study of ^14C-radiolabeled zalunfiban in health male volunteers (NCT04284995). The planned participant enrolment size was 8, with 2 additional alternate participants available on the morning of dosing. Following a 28-day screening period, all eligible participants were admitted to the research unit the evening before dosing. After fasting overnight, participants completed a standard breakfast prior to dosing on study day 1. After dosing, subjects fasted for 4 h. Fluids were permitted ad libitum starting 1-hour after dosing. […]
Whole blood samples were analysed using accelerator mass spectrometry (AMS). […] Each sample was counted for at least 10 min or until the 2%2σ terminator was reached. […] The CO2 produced was trapped in a Carbosorb/Permafluor 2:1 v/v (Perkin Elmer, Waltham MA) to determine total carbon content and the ^14C:^12C ratio and then analysed by AMS.
A carbon content correction based upon pre-dose whole blood samples and urine samples was applied to all post dose samples. As the carbon content of homogenised faeces can be variable, all homogenised faeces samples were analysed by C,H,N using a Thermo Scientific FlashSmart elemental analyser (Waltham, MA). Urea standards were used to calibrate and normalise the C,H,N, and the carbon content of each sample was determined. […]

[2] = Metabolite profiling of pooled whole blood, urine and faeces by LC radiochromatograms with AMS; format: in vivo, human
Experimental: For metabolite profiling in whole blood, urine, and faeces, LC-MS/MS followed by AMS was used. The HPLC system included a 1290 Infinity Sampler, Binary Pump, and thermostat (Agilent, UK). The chromatographic method used an aqueous formic acid (MPA)/ammonium acetate:acetonitrile:methanol (MPB) gradient and a Scherzo SS-C18 HPLC column at a temperature of 40 °C with injection volumes of 50–200 microliters. The gradient was set at 90% MAP and 10% MPB. The mass spectrometer was a Q-Exactive system (Thermo Fisher Scientific, UK) and the AMS a single stage NEC SSAMS-250.
Single whole blood, faeces, and urine pools were created across subjects and radioactive regions representing 10% or more of the circulating radioactivity were analysed (e.g. 10% or more of the circulating radioactivity in whole blood or accounting for 10% or more of the administered radioactivity/dose in urine and faeces), To create the pool, an individual subject AUC pool was prepared, and a constant proportion of each subject pool was taken to create one cross-subject pool. The whole blood sample pool included samples from hours 0–144, the urine sample pool included samples from hours 0–48, and the faeces pool from hours 0–192.
Whole blood, faeces, and urine radiochromatograms were generated for each sample by collecting HPLC fractions at intervals of 2 (30 s) or 4 (15 s) per minute over the run time of 110 min.
Radiochromatograms were generated from AMS data using the LAURA V6 software (LabLogic, Sheffield, UK). Regions of interest were quantified and provisionally identified where possible by assignment of observed peaks in each radiochromatogram to either parent zalunfiban or M1 by retention time matching, with corresponding ^12C-reference standards obtained via LC-UV.
Assignment of parent and metabolites was made by matching retention times with synthesised standards at wavelengths of 210, 230, 254, 270, and 300 nm, using liquid chromatography ultraviolet chromatography (LC-UV).
For extraction of ^14C-zalunfiban from whole blood, weighed aliquots in microcentrifuge tubes were processed with vortex mixing and centrifugation. The supernatant was then harvested and the process repeated with the bullet material in the original tube using acetonitrile and then methanol. The combined aliquots then underwent AMS analysis to determine the extraction recovery. Once optimised, the final combined supernatant was dried under N2 gas at 40 °C and reconstituted with 1 mL methanol:water (20:80, v/v), with vortex mixing and sonication. This was followed by analysis by LC. The radioactivity extraction recovery for whole blood (AUC0–144h) was 54.5%,
For extraction of ^14C-zalunfiban from homogenised faeces, weighed aliquots in microcentrifuge tubes were processed with vortex mixing and centrifugation, and then diluted with acetonitrile, followed by additional mixing, centrifugation, and repeat extraction with methanol:water until optimised. Once optimised, the final combined supernatant was dried under N2 gas at 40 °C and reconstituted with methanol, followed by water, followed by vortex mixing, followed by analysis by LC. The radioactivity extraction recovery for faeces (0–192 h) was 100%.
Urine was not subjected to extraction. An aliquot was dispensed into an LC vial prior to analysis.

## NCC(=O)Nc1cncc(-c2nn3c(=O)cc(N4CCNCC4)nc3s2)c1 [Zalunfiban, 2-amino-N-{5-[5-oxo-7-(piperazin-1-yl)-5H-[1,3,4]thia-diazolo[3,2-a]pyrimidin-2-yl]pyridin-3-yl}acetamide]
[1]; by 48 h, on average
  Radioactivity recovered in urine and faeces: more than 80%
[1]; by 240 h post-dose, range over participants, listed as 14C-zalunfiban
  Cumulative percentage of recovered ^14C (urine plus faeces): > 90%
[2]; 0–48 h
  Percentage of dose excreted in urine: 1.31%
[2]; 0–48 h cross-participant pooled sample
  Percentage of total radioactivity in urine: 1.59%
[2]; 0–192 h
  Percentage of dose excreted in faeces: 0.0239%
[2]; 0–192 h pooled sample
  Percentage of total radioactivity in faeces: 0.173%
[2]; AUC0–144 cross-pooled whole blood extract
  Percentage of total circulating radioactivity in whole blood: 46.9%
